This note sets out measurements from US8211916B2, “N- and O-substituted 4-[2-(diphenylmethoxy)-ethyl]-1-[(phenyl)methyl]piperidine analogs and methods of treating CNS disorders therewith” (Wayne State University, priority 2000, dated 2012).

Data set [1] addresses T1, DAT (Rattus norvegicus, UniProt P23977).
T1 construct: from tissue; host or cells: rat striatum
Put plainly: Uptake of [3H]DA by DAT, rat striatum. Format: biochemical. As to conditions: for Ki: [3H]DA uptake, rat striatum. The source says: Transporter assays. The affinity of test compounds in binding to rat DAT and in inhibiting monoamine uptake was monitored as described by us previously. […] Rat cerebral cortex was used for assessing uptake of [^3H]serotonin by SERT and hippocampus for uptake of [^3H]NE by NET. […] At lease five triplicate concentrations of each test compound were studied, spaced evenly around the IC50 value. The latter was estimated by nonlinear computer curve-fitting procedures and converted to Ki with the Cheng-Prusoff equation.

The target in data set [2] is T2, rat SERT (Rattus norvegicus, UniProt P31652).
T2 construct: from tissue; host or cells: rat striatum (membranes)
Put plainly: Rat SERT binding, [3H]citalopram, striatal membranes.
Protocol: (§1) Briefly, rat striatal membranes were incubated with radioligand and inhibitor for 2 h on ice in a sodium phosphate buffer at a final Na^+ concentration of 30 nM, pH 7.4, at room temperature. The assays were terminated by filtration through glass fiber filtermats (Wallac, Inc., Gaithersburg, Md.), presoaked in 0.05% (v/v) polyethyleneimine, with a MACH3-96 Tomtec harvester (Wallac, Inc.). Filters were assayed for radioactivity in a Microbeta Plus liquid scintillation counter (Wallac, Inc.).

Data set [3] has as its target T3, Norepinephrine (NET) Transporter (Rattus norvegicus, UniProt Q63380).
T3 construct: and norepinephrine Transporters in Rat Striatum; from tissue
Put plainly: NET binding, [3H]nisoxetine.

Data set [4] addresses rat DAT (Rattus norvegicus, UniProt P23977). In words: Rat DAT binding, [3H]Win 35,428, striatal membranes.
Protocol: as §1
Setting [5] is: read-out: Ki (DAT), inhibition of DA uptake.
The mark [6] stands for this setting: Ki (DAT), inhibition of DA uptake.

Structures can show the parent of a compound that is named as a salt. Where two headings read alike, the source gives them in different places.

T1 sequence (P23977 whole entry): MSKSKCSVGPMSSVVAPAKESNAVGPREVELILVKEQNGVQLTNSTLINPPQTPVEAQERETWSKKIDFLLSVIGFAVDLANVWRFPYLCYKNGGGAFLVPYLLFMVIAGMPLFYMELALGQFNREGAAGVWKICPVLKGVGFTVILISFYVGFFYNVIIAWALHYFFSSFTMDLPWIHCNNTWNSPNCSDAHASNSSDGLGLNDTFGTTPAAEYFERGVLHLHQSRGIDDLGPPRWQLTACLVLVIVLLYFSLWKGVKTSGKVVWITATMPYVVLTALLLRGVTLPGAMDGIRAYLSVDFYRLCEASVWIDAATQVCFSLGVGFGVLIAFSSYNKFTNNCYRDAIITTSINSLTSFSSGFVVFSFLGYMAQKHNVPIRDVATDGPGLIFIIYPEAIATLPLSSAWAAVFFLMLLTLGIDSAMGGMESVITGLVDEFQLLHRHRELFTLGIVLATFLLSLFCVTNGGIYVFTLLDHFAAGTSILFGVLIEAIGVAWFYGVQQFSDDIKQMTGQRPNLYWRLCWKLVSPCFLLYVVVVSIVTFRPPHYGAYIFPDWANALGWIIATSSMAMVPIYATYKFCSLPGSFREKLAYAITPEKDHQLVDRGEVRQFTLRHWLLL
T2 sequence (P31652 whole entry): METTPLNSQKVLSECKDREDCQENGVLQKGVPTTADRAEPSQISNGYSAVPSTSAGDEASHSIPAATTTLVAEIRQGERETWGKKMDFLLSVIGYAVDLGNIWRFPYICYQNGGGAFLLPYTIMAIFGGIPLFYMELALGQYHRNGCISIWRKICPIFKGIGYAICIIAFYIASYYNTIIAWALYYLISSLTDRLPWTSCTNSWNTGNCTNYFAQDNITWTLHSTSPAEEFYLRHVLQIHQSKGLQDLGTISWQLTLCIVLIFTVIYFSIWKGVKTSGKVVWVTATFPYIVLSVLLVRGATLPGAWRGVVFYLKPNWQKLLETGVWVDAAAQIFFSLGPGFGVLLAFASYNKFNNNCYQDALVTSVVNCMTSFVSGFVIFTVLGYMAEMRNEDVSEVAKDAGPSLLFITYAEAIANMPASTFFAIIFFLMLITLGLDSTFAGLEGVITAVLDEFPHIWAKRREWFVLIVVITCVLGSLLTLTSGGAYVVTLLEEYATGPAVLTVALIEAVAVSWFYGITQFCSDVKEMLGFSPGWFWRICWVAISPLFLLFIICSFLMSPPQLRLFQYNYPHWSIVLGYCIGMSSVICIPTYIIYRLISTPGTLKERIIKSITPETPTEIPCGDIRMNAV
T3 sequence (Q63380 1-617): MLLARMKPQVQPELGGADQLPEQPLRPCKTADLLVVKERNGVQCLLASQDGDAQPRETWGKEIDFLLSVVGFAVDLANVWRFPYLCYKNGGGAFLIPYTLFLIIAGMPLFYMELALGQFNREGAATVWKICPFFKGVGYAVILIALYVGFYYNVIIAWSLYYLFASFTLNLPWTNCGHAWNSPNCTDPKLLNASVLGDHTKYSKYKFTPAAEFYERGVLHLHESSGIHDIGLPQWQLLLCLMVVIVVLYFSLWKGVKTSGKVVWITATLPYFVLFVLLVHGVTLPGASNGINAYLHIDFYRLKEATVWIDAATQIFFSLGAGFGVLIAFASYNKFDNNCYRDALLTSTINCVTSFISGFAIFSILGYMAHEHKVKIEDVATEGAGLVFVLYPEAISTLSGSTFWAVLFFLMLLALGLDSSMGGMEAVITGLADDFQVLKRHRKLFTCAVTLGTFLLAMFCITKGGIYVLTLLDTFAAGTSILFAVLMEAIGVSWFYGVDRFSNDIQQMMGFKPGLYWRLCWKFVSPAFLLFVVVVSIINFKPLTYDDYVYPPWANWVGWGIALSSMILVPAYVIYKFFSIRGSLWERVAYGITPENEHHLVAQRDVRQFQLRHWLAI
rat DAT, sequence (P23977 whole entry): as the sequence (P23977 whole entry) above

With “1-((5S,8S)-8-benzhydryl-1,4-diazabicyclo[3.3.1]nonane-2-yl)-3-phenylpropan-2-ol [Example 6a]”, in data set [1] (setting [5]), the Ki (in general, the equilibrium dissociation constant of an inhibitor or competing ligand from its target) is 82.9 nM.

For the compound “1-((5S,8S)-8-benzhydryl-1,4-diazabicyclo[3.3.1]nonane-2-yl)-3-phenylpropan-2-ol [Example 6b]”, the Ki in data set [1] (setting [5]) is 16.8 nM.

`Fc1ccc(CN2CCC(CNOC(c3ccccc3)c3ccccc3)CC2)cc1` (as salt: oxalate) [Example 7, 4-[((2-Diphenylmethoxy)amino)methyl]-1-[(4-fluorophenyl)methyl]piperidine]: the melting point – broadly, the temperature of the solid-liquid transition – lay in the range of 154 to 155 °C.

`CN(CC1CCN(Cc2ccc(F)cc2)CC1)CC(c1ccccc1)c1ccccc1` (as salt: oxalate) [Example 13] had a melting point of 144 to 145 °C.

Compound `CC(NCCC1CCN(Cc2ccc(F)cc2)CC1)c1ccccc1` (stereo not drawn) (as salt: oxalate) [Example 14, 4[2-[(1-(phenyl)ethyl)amino]ethyl]-1-[(4-fluorophenyl)methyl]piperidine] registered a melting point of 172 to 173 °C.

Compound `Ic1ccc(CN2CCC(CCOC(c3ccccc3)c3ccccc3)CC2)cc1` (as salt: oxalate) [Example 19, 4-[2-(diphenylmethoxy)ethyl]-1-[(4-iodophenyl)methyl]piperidine] displayed a melting point of 160 to 161 °C.

As for `O=C1CN(Cc2ccc(F)cc2)CCC1CCOC(c1ccccc1)c1ccccc1` (racemic) (as salt: oxalate) (hydrate or solvate) [Example 18, racemic 3-Keto-4-[2-(diphenylmethoxy)ethyl]-1-[(4-fluorophenyl)methyl]piperidine], the melting point lay in the range of 104 to 109 °C.

Turning to `OC1CN(Cc2ccc(F)cc2)CCC1CCOC(c1ccccc1)c1ccccc1` (racemic) (as salt: oxalate) [Example 16, racemic trans-3-hydroxy-4-[2-diphenylmethoxy)ethyl]-1-[(4-fluorophenyl)methyl]piperidine], the melting point was in the range of 143 to 150 °C.

For the compound `OC1CN(Cc2ccc(F)cc2)CCC1CCOC(c1ccccc1)c1ccccc1` (racemic) [Example 16, racemic trans-3-hydroxy-4-[2-diphenylmethoxy)ethyl]-1-[(4-fluorophenyl)methyl]piperidine], the IC50 (in general, the concentration at which inhibition is half-maximal) in data set [2] turned out to be 1110 nM; in data set [3] (Table 5, rat striatum, read-out: NET, IC50, nM [3H]nisoxetine), 637 ± 114 nM; in data set [4], 5.96 ± 1.26 nM.

Take `CCC(=O)OC1CN(Cc2ccc(F)cc2)CCC1CCOC(c1ccccc1)c1ccccc1` (racemic) [Example 17]: the IC50 was determined as 178 nM in data set [2] (Table 5, rat striatum, read-out: SERT, IC50, nM [3H]citalopram); 35800 nM in data set [3]; 583 ± 81 nM in data set [4].

In turn, `OC(CCN1CCN2CC1CCC2C(c1ccccc1)c1ccccc1)c1ccc(F)cc1` (single isomer, unassigned) [Example 11a] yielded a Ki in data set [1] (setting [6]) of 41.8 nM.

Consider `OC(CCN1CCN2CC1CCC2C(c1ccccc1)c1ccccc1)c1ccc(F)cc1` (single isomer, unassigned) [Example 11b], for which the Ki in data set [1] (setting [6]) was found to be 8.63 nM. Further, the NET/DAT in data set [1] (uptake inhibition selectivity, norepinephrine vs dopamine) was 48.4. The compound also came in with an SERT/DAT in data set [1] (uptake inhibition selectivity, serotonin vs dopamine) of 172.

Regarding `O[C@@H](CN[C@H]1CC[C@@H](C(c2ccccc2)c2ccccc2)NC1)Cc1ccccc1` [Example 4c, (R)-1-[(3S,6S)-6-benzhydrylpiperidin-3-ylamino)-3-phenylpropan-2-ol], the Ki in data set [1] (setting [5]) is 25 nM.

In the case of `O[C@H](CN[C@H]1CC[C@@H](C(c2ccccc2)c2ccccc2)NC1)Cc1ccccc1` [Example 4d, (S)-1-[(3S,6S)-6-benzhydrylpiperidin-3-ylamino)-3-phenylpropan-2-ol], the Ki in data set [1] (setting [5]) was found to be 25.3 nM.

In data set [1] (setting [6]), `OC(CN1CCN2CC1CCC2C(c1ccccc1)c1ccccc1)c1ccc(F)cc1` [Example 7c, (R)-2-((5S,8S)-8-benzhydryl-1,4-diazabicyclo[3.3.1]nonane-2-yl)-1-4-fluorophenyl)ethanol] displayed an inhibition constant Ki of 66.5 nM.
